Measured values taken from PubChem BioAssay AID2305 (GlaxoSmithKline (GSK), 2010).

Tested on: P. falciparum 3D7 growth, pLDH absorbance
Assay: blood-stage malaria parasite growth potency – strain 3D7, dose response (AID 2305)

Row | Structure (SMILES) | IC50
1 | CC(=O)Nc1nc(C(=O)Nc2ccc(-c3cccc(-c4nc5ccc(C(F)(F)F)cc5[nH]4)c3)cc2)cs1 | 0.18 µM
2 | CCCCN1CC[C@@H](CCC(O)c2ccnc3ccc(OCCC(C)C)cc23)[C@@H](CC)C1 (stereo partly specified) | 0.99 µM
3 | Fc1ccccc1CNc1ncc(-c2ccsc2)c(-c2nccs2)n1 | 0.05 µM
4 | O=C(/C=C/c1cc(C(F)(F)F)ccc1F)NC1CCC(CN2CCC(c3c[nH]c4ccccc34)CC2)CC1 (stereo unspecified) | 0.82 µM
5 | COc1ccc(-c2cnc(N)nc2N)cc1Cl | 1.4 µM
6 | CC(C)NC(=O)c1cccc(-c2cccc(OCCN3CCSCC3c3ccccc3)c2)c1 (stereo unspecified) | 1.01 µM
7 | COc1ccc2nccc([C@@H](O)CN3CCC(NCc4ccc5c(c4)NC(=O)C(C)(C)O5)CC3)c2c1 | 0.4 µM
8 | Cc1cc2c(NC(=O)NC3CCN(CCc4cccc(Cl)c4)CC3)cccc2cn1 | 0.37 µM
9 | CN1CCN(CCCN(Cc2cccc(-c3ccc(CNC4CCCC4)cc3)c2)C(=O)CCC2CCCC2)CC1 | 0.76 µM
10 | CN(C(=O)c1ccccc1)[C@@H]1c2cc(C#N)ccc2OC(C)(C)[C@H]1O | 0.65 µM
11 | Oc1cc(-c2nc(-c3ccccc3)[nH]c2-c2ccncc2)ccc1Cl | 0.81 µM
12 | COc1ccc2ncc(F)c(CCN3CCC(CNCc4cccc5c4OCO5)CC3)c2n1 | 0.93 µM
13 | Cn1nccc1C(=O)NCCNCc1cccc(-c2cccc(-c3nc4ccc(C(F)(F)F)cc4[nH]3)c2)c1 | 0.17 µM
14 | COc1c(Br)cc(Br)cc1-c1ccc(CN2C3CCCC2CCC3)[nH]1 | 1.11 µM
15 | CCCCCCCSc1ccc(CC(C)NCC(O)c2cccc(Cl)c2)cc1 (stereo unspecified) | 0.18 µM
16 | CCc1nc(N)nc(N)c1-c1ccc2c(c1)CCCC2 | 0.2 µM
17 | CNCCNCc1cccc(-c2ccc(-c3nc4ccccc4[nH]3)s2)c1 | 0.83 µM
18 | CC(Sc1nc2sccc2c(=O)n1C)C(=O)Nc1ccc2c(c1)OCO2 (stereo unspecified) | 1.04 µM
19 | CN1CCN(CC(=O)Nc2cccc(-c3ccc(-c4nc5ccc(F)cc5[nH]4)cc3)c2)CC1 | 0.7 µM
20 | O=C(NCCN1CCCCC1)c1ccc(CNC(=O)c2ccc(O)c(-c3ccc(Cl)c(Cl)c3)c2)cc1 | 0.9 µM
21 | CSC1=NC(=Nc2c(C)cccc2C)C2(CCCCC2)N1c1ccccc1Cl | 0.82 µM
22 | O=C(Nc1cc(C(F)(F)F)cc(C(F)(F)F)c1)Nc1cc(C(F)(F)F)cc(C(F)(F)F)c1 | 0.73 µM
23 | Cc1ccc(-c2cc(C(=O)Nc3ccc(S(=O)(=O)N4CCCC(C)C4)cc3)[nH]n2)c(O)c1 (stereo unspecified) | 0.28 µM
24 | CCCC(C(=O)OCCNC)(c1ccccc1)c1ccccc1 | 0.89 µM

Row | Structure (SMILES) | IC50
25 | Cc1cc(-c2cccc(CNC3CCCC3)c2)ccc1S(=O)(=O)NCCN1CCCC1 | 1.24 µM
26 | CCn1c(Cc2ccccc2)nnc1SCC(=O)N1c2ccccc2Sc2ccccc21 | 0.59 µM
27 | O=c1cc(NCCCN(Cc2cc3c(Cl)cc(Cl)cc3[nH]2)Cc2cc3c(Cl)cc(Cl)cc3[nH]2)[nH]c2ccccc12 | 0.12 µM
28 | CCOc1cc(N)c2nc3ccc([N+](=O)[O-])cc3cc2c1 | 0.15 µM
29 | Nc1cc2c(C3CCN(CC4CCN(C(=O)/C=C/c5ccc(Cl)c(Cl)c5)CC4)CC3)c[nH]c2cn1 | 0.97 µM
30 | COc1ccc(Cc2cnc3nc(N)nc(N)c3c2C)cc1OC | 0.01 µM
31 | CCN(CC)CCNC(=O)c1ccc(NC(=O)c2cc3c(C)nn(-c4ccc(Cl)cc4)c3s2)cc1 | 0.25 µM
32 | COC(=O)C(c1ccc(NC(=O)[C@H](CC(C)C)NC(=O)OC(C)(C)C)cc1)c1ccc(NC(=O)[C@H](CC(C)C)NC(=O)OC(C)(C)C)cc1 | 0.35 µM
33 | CN1CCC(c2cc3c(cc2Br)CCN3C(=O)Nc2ccc(-c3ccncc3)c(Cl)c2)CC1 | 1.01 µM
34 | CCCC(C)NC[C@@H](O)[C@H](Cc1ccccc1)NC(=O)c1cc(C2CCCC2)cc(N2CCCCS2(=O)=O)c1 (stereo partly specified) | 0.15 µM
35 | CN(CCON1C(N)=NC(N)=NC1(C)C)c1ccccc1 | 0.02 µM
36 | O=C1C([N+](=O)[O-])=C(O)c2cccc(F)c21 | 0.15 µM
37 | Cc1cc(C)c(NC(=O)N[C@H]2CCN(CCCCCNC(=O)/C=C/c3ccc(Cl)c(Cl)c3)C2)c(C)c1 | 0.95 µM
38 | N#Cc1ccc(NC(=O)Nc2ccc3c(c2)CCN(C2CCC2)CC3)cc1 | 0.63 µM
39 | COCCN1CCC(N(CC2(O)CCN(c3ccc(C(F)(F)F)cc3)CC2)C(=O)Cn2c(SCc3cccc(F)c3F)cc(=O)c3ccccc32)CC1 | 0.81 µM
40 | Cc1cc(F)ccc1Oc1nc(Nc2ccc(N3CCOCC3)c(F)c2)nc2c1S(=O)(=O)CCC2 | 0.46 µM
41 | CCOc1cc(CC)ccc1C1CCN(CCN2CCC(NC(=O)c3ccc(-c4ccc(C#N)cc4)cc3)CC2)CC1 | 0.61 µM
42 | COc1cc(NC2=NS(=O)(=O)c3cc(Cl)ccc3N2C)cc(OC)c1OC | 0.42 µM
43 | O=S(=O)(NCCN1CCCC1)c1cccc(-c2ccccc2CNC2Cc3ccccc3C2)c1 | 0.74 µM
44 | CCc1cc2c(=O)c(-c3nc(C)cs3)c(N)oc2c(CN2CCCCC2)c1O | 0.66 µM
45 | Cc1[nH]c(/C=C2\C(=O)Nc3ccc(S(=O)(=O)Cc4c(Cl)cccc4Cl)cc32)c(C)c1C(=O)N1CCC[C@@H]1CN1CCCC1 | 0.72 µM
46 | Cc1cc(N[C@@H](Cc2ccccc2)C(=O)NCc2cccc(F)c2)nc(NCc2ccccc2C)n1 | 0.98 µM
47 | COc1ccc(CNC(=O)Nc2cc3cc(-c4ccc(CN(C)C)cc4)ccc3n3c(C)nnc23)cc1 | 0.85 µM
48 | O=c1c2ccccc2[nH]c2nc3ccccc3c(Nc3ccccc3)c12 | 0.14 µM

Row | Structure (SMILES) | IC50
49 | Cn1nc(-c2ccc(NC(=O)Nc3cc(C(F)(F)F)ccc3F)c(F)c2)c2cnc(NCCCN3CCOCC3)nc21 | 0.6 µM
50 | CCCC1CCNC(C(O)c2ccnc3ccc(OC)cc23)C1 (stereo unspecified) | 0.43 µM
51 | CNC(=O)c1cnc(Nc2ccc(OCC(O)CN(C)C)cc2)nc1Nc1cccc(OC)c1 (stereo unspecified) | 0.32 µM
52 | CC(C)c1ccc2oc(-c3ccc(NC(=O)c4ccc([N+](=O)[O-])o4)cc3)nc2c1 | 0.34 µM
53 | Nc1ccc2c(N)c3ccccc3nc2c1 | 0.81 µM
54 | CCNc1cc(C)nc(Nc2ccc(NC(=O)c3ccco3)cc2)n1 | 1.09 µM
55 | COc1ccc2c(c1)[nH]c1c(C=Cc3ccccc3)nccc12 | 0.38 µM
56 | OC(CNCc1ccccc1OCc1ccccc1)c1cccc(Br)c1 (stereo unspecified) | 0.64 µM
57 | Cc1cc(C)c(NC(=O)NC2CCN(CCCCCNC(=O)/C=C/c3ccc(Cl)c(Cl)c3)CC2)c(C)c1 | 0.8 µM
58 | O=C(c1ccccc1N=Nc1c(-c2ccccc2)[nH]n(-c2ccccc2)c1=O)N1CCOCC1 | 0.35 µM
59 | CCC[C@@H]([C@@H](CC(C)C)C(=O)N[C@@H](CCCCNC(=O)OCc1ccccc1)C(=O)Nc1ncccn1)N(O)C=O | 0.06 µM
60 | Cc1c(NC(=O)COc2ccc(Cl)cc2C(=O)c2cc(F)cc(C(F)(F)F)c2)ccc2ncsc12 | 1.02 µM
61 | O=C(NCc1ccccc1F)c1ccc(N2CCC(NCc3cccc(-n4cccn4)c3)CC2)cc1 | 1.73 µM
62 | Cc1cccc2[nH]c(-c3ccc(-c4ccc(NC(=O)CN5CCN(C)CC5)cc4)s3)nc12 | 1.02 µM
63 | Cc1cc(NCCCCCCN)nc(Nc2ccc(Cl)cc2)n1 | 0.45 µM
64 | CCCCC([C@@H](Cc1ccc2ccccc2c1)C(=O)N[C@H](C(=O)NC)C(C)(C)C)N(O)C=O (stereo partly specified) | 0.14 µM
65 | Cc1ccc(Nc2nccc(Nc3ccc4c(C)[nH]nc4c3)n2)cc1F | 0.78 µM
66 | CCN1CCN(c2cc(C)c3cc(NC(=O)c4cccc([N+](=O)[O-])c4)ccc3n2)CC1 | 0.52 µM
67 | COc1ccc(C2C(C(=O)OC3CCCC3)=C(C)NC3=C2C(=O)CCC3)cc1Br (stereo unspecified) | 0.59 µM
68 | COc1cc(F)c2nccc([C@@H](O)CN3CCC(NCc4cc5c(cc4F)OCCO5)CC3)c2c1 | 0.68 µM
69 | CCN1CCN(CCCNc2ccnc3cc(Cl)ccc23)CC1 | 0.07 µM
70 | CS(=O)(=O)CCNCc1cccc(-c2cc3c(Nc4ccc5c(cnn5Cc5ccccc5)c4)ncnc3s2)c1 | 0.55 µM
71 | COc1ccc(S(=O)(=O)N2CCCC(C)C2)cc1N1CCN(C(=O)c2ccc([N+](=O)[O-])o2)CC1 (stereo unspecified) | 1.25 µM
72 | COc1ccc(Nc2nc(C)cc(NC3CCCC3)n2)cc1 | 0.87 µM

Row | Structure (SMILES) | IC50
73 | N#CCCN1CCN(Cc2cccc(-c3ccc(-c4nc5ccc(C(F)(F)F)cc5[nH]4)cc3)c2)CC1 | 0.74 µM
74 | O=C(Nc1cccc(-c2ccc(CN3CCCC3)cc2)c1)c1cccc(F)c1 | 0.78 µM
75 | O=C(c1ccc(-c2cccc(-c3nc4ccc(F)cc4[nH]3)c2)cc1)N1CCCCC1CN1CCC(O)C1 (stereo unspecified) | 1.4 µM
76 | CCN1CCN(c2cc(C)c3cc(NC(=O)c4cccc(Cl)c4)ccc3n2)CC1 | 0.77 µM
77 | CCOc1c(Cl)cc(Cl)cc1CNCCCNc1nc2ccccc2[nH]1 | 0.83 µM
78 | Cc1c(Oc2ccc(-n3ccnc3)cc2)ncnc1N1CCC2(CC1)CNCc1ccccc12 | 0.89 µM
79 | COc1ccccc1-c1cccc(-c2cccc(NC(=O)c3ccc([N+](=O)[O-])o3)c2)n1 | 0.6 µM
80 | CN1CCN(c2cc3c(cc2Cl)CCN3C(=O)Cc2ccc(NC(=O)Nc3cccc4ccccc34)cc2)CC1 | 0.97 µM
81 | O=C(/C=C/c1ccc(Cl)c(Cl)c1)NCCCCN1CCC(c2c[nH]c3ccccc23)CC1 | 0.86 µM
82 | Cc1cc(Cc2ccc(S(=O)(=O)c3cc4c(cc3O)CCN(C)CC4)cc2)ccc1Cl | 0.91 µM
83 | Clc1ccc(Cc2nc3ccccc3[nH]2)cc1Cl | 0.25 µM
84 | O=C(NCCCCCN1CCC(c2c[nH]c3ccccc23)CC1)Nc1cccc(I)c1 | 0.99 µM
85 | Cc1[nH]c2ccc(NS(C)(=O)=O)cc2c1C1CCN(CCC2CCN(C(=O)/C=C/c3ccc(Cl)c(Cl)c3)CC2)CC1 | 0.84 µM
86 | O=c1c(Br)c(C(F)(F)F)[nH]c2ccc(Oc3ccccc3)cc12 | 1.1 µM
87 | COc1cccc(NC(=O)NC2CCN(c3ccnc(Nc4cc(OC)c(OC)c(OC)c4)n3)C2)c1 (stereo unspecified) | 0.86 µM
88 | CN(c1ccc(NC(=O)Nc2cc(C(C)(C)C)on2)cc1)c1ccnc(NCCOC(=O)Nc2cc(C(C)(C)C)on2)n1 | 0.75 µM
89 | O=C(Nc1ccc(OC2CCN(Cc3ccccc3)CC2)c(Cl)c1)c1ccsc1 | 0.9 µM
90 | Cc1cnc(CNCc2ccc(S(=O)(=O)Nc3ccc(Oc4cccc(Cl)c4)cc3)cc2)cn1 | 0.77 µM
91 | NC(N)=Nc1nc(-c2cccc(NC(=O)C(F)(F)F)c2)cs1 | 1.05 µM
92 | O=C(NC1CCC(CN2CCC(c3c[nH]c4ccccc34)CC2)CC1)c1ccc(-c2cc(C(F)(F)F)ccc2Cl)o1 (stereo unspecified) | 0.71 µM
93 | COc1ccc2ncc(F)c([C@H](O)CN3CCC(NCc4ccc5c(c4)OCCO5)CC3)c2c1 | 0.15 µM
94 | O=C(/C=C/c1cc(F)c(F)cc1F)N1CCC(CN2CCC(c3c[nH]c4ccccc34)CC2)CC1 | 1 µM
95 | O=C(NCc1cccc(F)c1)Nc1cccc(-c2cccc(-c3nc4ccccc4[nH]3)c2)c1 | 0.39 µM
96 | O=C(C=Cc1ccc(Cl)c(Cl)c1)NCCCCCN1CCC(CCCNC(=O)c2ccc3c(c2)OCO3)CC1 | 0.15 µM
